Laboratory results reported in patent US20050239774A1 (priority 2002, published 2005).

Biological target: α7 nAChR subtype (Rattus norvegicus, UniProt Q05941)
Format: binding
Settings: read-out: KD of the radioligand (saturation curve, one site model)

Sequence of α7 nAChR subtype (Q05941 23-502 limits assumed): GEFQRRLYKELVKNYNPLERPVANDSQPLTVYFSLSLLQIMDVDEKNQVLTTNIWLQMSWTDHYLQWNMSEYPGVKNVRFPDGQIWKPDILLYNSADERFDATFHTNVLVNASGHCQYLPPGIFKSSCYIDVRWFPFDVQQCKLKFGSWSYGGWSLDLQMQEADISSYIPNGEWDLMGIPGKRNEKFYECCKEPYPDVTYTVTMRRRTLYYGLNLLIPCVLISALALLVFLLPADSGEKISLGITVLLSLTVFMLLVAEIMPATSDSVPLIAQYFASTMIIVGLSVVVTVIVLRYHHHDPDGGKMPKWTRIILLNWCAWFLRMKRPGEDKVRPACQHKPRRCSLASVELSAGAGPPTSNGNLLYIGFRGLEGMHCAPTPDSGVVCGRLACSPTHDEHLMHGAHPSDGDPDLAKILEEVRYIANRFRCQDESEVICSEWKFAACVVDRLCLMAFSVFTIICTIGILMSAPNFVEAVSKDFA

^125I-α-Bungarotoxin [^125I-α-BTX]
Kd: 1.67 nM
